From article PMC3655264, “A Large-Scale Conformational Change Couples Membrane Recruitment to Cargo Binding in the AP2 Clathrin Adaptor Complex” (Cell, 2010)

How the values were obtained:
Assay in all cases: SPR, PtdIns4,5P2-containing liposomes on L1 chip
AP2 core [1] = target: T1, AP2 core (Rattus norvegicus; Mus musculus; Homo sapiens, UniProt P18484+P63010+P84092, form not given, species not given); conditions: apparent, multivalent membrane binding; five lysines of the second basic region (Lys330-Lys373) of C-mu2 to Glu, which five not told
T1 construct: gene Ap2a2; heterotetrameric 200 kDa core: alpha trunk-GST, His6-beta2 trunk, mu2 with myc tag (MEQKLI) in surface loop at residue 236, untagged sigma2; E. coli; with AP-2 complex subunit sigma
Excerpt: SPR, PtdIns4,5P2-containing liposomes on L1 chip on AP2 core | (5K>E) slightly weakens the binding of AP2 cores to PtdIns4,5P2-containing membranes
Target sequence in this assay (P18484 1-620): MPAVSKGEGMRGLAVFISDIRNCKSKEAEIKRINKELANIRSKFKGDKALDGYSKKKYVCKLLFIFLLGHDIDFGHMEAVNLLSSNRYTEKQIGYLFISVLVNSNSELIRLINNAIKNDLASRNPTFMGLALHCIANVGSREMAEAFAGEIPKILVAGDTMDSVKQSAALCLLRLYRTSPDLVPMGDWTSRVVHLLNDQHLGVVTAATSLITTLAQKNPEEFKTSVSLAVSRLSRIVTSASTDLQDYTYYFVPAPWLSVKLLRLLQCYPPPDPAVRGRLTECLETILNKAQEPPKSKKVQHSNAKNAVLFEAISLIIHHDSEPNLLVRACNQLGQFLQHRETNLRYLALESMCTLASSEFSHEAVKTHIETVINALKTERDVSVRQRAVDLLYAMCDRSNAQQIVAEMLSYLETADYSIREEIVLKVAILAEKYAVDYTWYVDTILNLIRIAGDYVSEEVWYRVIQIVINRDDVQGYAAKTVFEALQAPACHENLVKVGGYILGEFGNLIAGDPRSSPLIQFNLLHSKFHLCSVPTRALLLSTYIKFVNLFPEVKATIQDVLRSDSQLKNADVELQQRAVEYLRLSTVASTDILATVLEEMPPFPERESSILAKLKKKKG
Target sequence in this assay (P84092 whole entry): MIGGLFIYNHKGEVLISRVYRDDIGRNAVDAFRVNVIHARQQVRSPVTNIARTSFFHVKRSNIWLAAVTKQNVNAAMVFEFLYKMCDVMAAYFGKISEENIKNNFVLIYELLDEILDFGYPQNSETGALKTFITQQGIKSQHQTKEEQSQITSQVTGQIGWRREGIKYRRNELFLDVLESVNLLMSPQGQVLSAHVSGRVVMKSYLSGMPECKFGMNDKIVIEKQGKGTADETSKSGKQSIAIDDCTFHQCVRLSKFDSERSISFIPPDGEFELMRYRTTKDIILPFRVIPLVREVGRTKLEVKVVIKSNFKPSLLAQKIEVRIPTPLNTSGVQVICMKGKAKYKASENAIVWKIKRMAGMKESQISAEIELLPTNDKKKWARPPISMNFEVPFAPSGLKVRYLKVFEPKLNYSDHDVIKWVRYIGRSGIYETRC
Target sequence in this assay (P62743 whole entry, further chain): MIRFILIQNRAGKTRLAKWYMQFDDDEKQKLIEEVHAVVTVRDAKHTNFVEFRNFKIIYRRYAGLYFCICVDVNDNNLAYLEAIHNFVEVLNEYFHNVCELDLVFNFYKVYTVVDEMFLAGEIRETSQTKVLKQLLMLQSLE
Target sequence in this assay (P63010 1-592): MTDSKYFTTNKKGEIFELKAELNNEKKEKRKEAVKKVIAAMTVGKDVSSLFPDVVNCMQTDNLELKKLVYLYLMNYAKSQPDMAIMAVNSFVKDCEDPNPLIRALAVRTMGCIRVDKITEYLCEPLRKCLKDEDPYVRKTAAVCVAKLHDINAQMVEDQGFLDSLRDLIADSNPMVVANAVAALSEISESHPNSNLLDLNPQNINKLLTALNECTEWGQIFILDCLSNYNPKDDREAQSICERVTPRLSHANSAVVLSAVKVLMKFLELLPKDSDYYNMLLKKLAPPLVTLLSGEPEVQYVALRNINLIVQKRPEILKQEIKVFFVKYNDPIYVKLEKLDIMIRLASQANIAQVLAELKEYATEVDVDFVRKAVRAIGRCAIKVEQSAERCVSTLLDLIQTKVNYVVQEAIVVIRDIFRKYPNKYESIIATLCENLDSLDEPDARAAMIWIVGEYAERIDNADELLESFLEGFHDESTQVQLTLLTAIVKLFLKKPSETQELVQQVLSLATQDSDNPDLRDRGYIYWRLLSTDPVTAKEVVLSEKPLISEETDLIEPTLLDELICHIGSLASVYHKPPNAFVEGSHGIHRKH

AP2 core [2] = target: T1, AP2 core; conditions: apparent, multivalent membrane binding
Target sequence in this assay (P62743 whole entry): as the sequence (P62743 whole entry, further chain) above
Target sequence in this assay (P18484 1-620): as the sequence (P18484 1-620) above
Target sequence in this assay (P84092 whole entry): as the sequence (P84092 whole entry) above
Target sequence in this assay (P63010 1-592): as the sequence (P63010 1-592) above

AP2 core [3] = target: T2, AP2 core (Rattus norvegicus; Mus musculus; Homo sapiens, UniProt P18484+P63010+P84092); conditions: apparent, multivalent membrane binding (sites on alpha, beta2, mu2); no cargo peptide; 10 mM Tris pH 8.7, 250 mM NaCl
T2 construct: gene Ap2a2; heterotetrameric 200 kDa core: alpha trunk-GST, His6-beta2 trunk, mu2 with myc tag (MEQKLI) in surface loop at residue 236, untagged sigma2; E. coli; with AP-2 complex subunit sigma
T2 sequence (P62743 whole entry): as the sequence (P62743 whole entry, further chain) above
T2 sequence (P84092 whole entry): as the sequence (P84092 whole entry) above
T2 sequence (P63010 1-592): as the sequence (P63010 1-592) above
T2 sequence (P18484 1-620): as the sequence (P18484 1-620) above

**Q.** Which results are given for PtdIns4,5P2?
**A.** Kd (AP2 core [1]): 11 µM; Kd (AP2 core [2]): 30 µM; Kd (AP2 core [3]): 7 µM
